Results from PMC11170954, “Effect of Peptide–Polymer Host–Guest Electrostatic Interactions on Self-Assembling Peptide Hydrogels Structural and Mechanical Properties and Polymer Diffusivity” (Biomacromolecules, 2024).
Ends that are not written are not given here.

Experiments:
[1] = Peptide titration with NaOH (pKa-like transitions, net charge assignment); format: physicochemical; settings: stepwise NaOH addition to peptide solution in HPLC grade water; for first pKa-like transition (deprotonation of glutamic acid side groups), pH: start pH ∼3.2, transition observed up to this pH
Description: Peptide titration experiments were performed by adding 0.1 or 0.5 M NaOH solutions in 1–2 μL steps to a 1 mL HPLC-grade water peptide solution with a 2 mg mL^–1 starting concentration. After each NaOH addition, the samples were vigorously agitated using a vortex to ensure homogeneous mixing and the pH was measured using a Fisherbrand Hydrus 300 benchtop pH meter.
As stated in the introduction, these two peptides were designed to be “symmetrical” in relation to the position and distribution of their anionic (COOH/COO^–) and cationic (NH3^+/NH2) groups and to carry an overall theoretical net charge modulus of 1 at pH 7. As shown in our previous work, self-assembly can induce a shift in pKa of these ionic groups depending on the surrounding environment created.[26],[38] To investigate the effect of self-assembly on pKa of these groups, titration experiments were performed on each peptide at a […] concentration. The resulting curves are presented in Figure 2A, B. Both peptides were purchased as HCl salts; therefore, when dissolved in water low pH, ∼ 3.2, solutions were obtained. Upon addition of NaOH a first pKa-like transition was observed up to pH 5 for K(FEFK)2 and pH 4.5 for E(FKFE)2. This first transition is associated in both cases with deprotonation of the glutamic acid side groups.

[2] = Small-angle X-ray scattering of hydrogels; format: physicochemical; settings: for fibers cross-section radius of gyration, Rσ: SAXS Guinier fit, hydrogels 6 mg mL^–1, pH 7; for estimated fiber diameter, df: from Rσ assuming cylindrical geometry
Description: SAXS experiments were performed on beamline I22 at the diamond light source (DLS) synchrotron (Didcot, UK).[31] The energy of the beam was 12.4 keV, corresponding to an X-ray wavelength of 0.1 nm. Quartz capillaries (1.5 mm outer diameter and 0.01 mm wall thickness) from Capillary Tube Supplies Ltd. (Bodmin, UK) were used as sample holders. The samples were prepared as described earlier and injected into the capillaries using a syringe. The sample-to-detector distance was fixed to 5.77 m, corresponding to an accessible momentum transfer vector range of 0.1 nm^–1 < q = (4π/λ) sin(θ/2) < 3.0 nm^–1, where θ is the scattering angle and λ is the wavelength of the incident photons. Calibration of the SAXS detector (Pilatus P3–2M, Dectris, Switzerland) was performed using silver behenate powder, and data were collected as 10 × 100 ms frames. Data were reduced using the Dawn software suite available from DLS.[32] The 2D isotropic scattering patterns were corrected for the detector response, dark current background, and sample transmission and then azimuthally integrated to generate 1D scattering patterns. Under these conditions, the sample coherent normalized scattering intensity IN(q) is [drawing 2] 1 where Ip(q) is the normalized intensity scattered by the sample, Is(q) is the normalized intensity scattered by the solvent in our case HPLC grade water, Cp is the peptide concentration in g cm^–3, and Ib is the background scattering originating mainly from the incoherent scattering of the peptides. Is(q) was obtained by measuring the scattering of the solvent, HPLC grade water, and Ib was estimated using the Porod law that gives the scattered intensity of a two-phase system at high q values: [drawing 3] 2 where Kp is the Porod constant. Ib was estimated by fitting the last 40 data points of the 1D scattering patter using a Porod plot [q^4I(q) vs q^4].[33]−[36]
The formation of fibers and fibrillar entangle networks was confirmed by SAXS and TEM. […] From a Guinier representation, ln qI(q) vs q^2, the fibers cross-section radius of gyration, Rσ, can be obtained. Indeed, it has been shown that for thin rod-like structures for qRσ < 1 the scattering intensity can be written as[34],[39] [drawing 4] 3
From the fitting of the linear region, Rσ values of 1.2 ± 0.2 nm for K(FEFK)2 and 1.4 ± 0.2 nm for E(FKFE)2 were obtained. Assuming a cylindrical geometry, Rσ can be related to the fiber diameter, df, through: [drawing 5] 4

[3] = TEM fiber width analysis; format: physicochemical; settings: log-normal fit, 700 fibers, cut-off 20 nm, hydrogels 12 mg mL^–1 peptide (0.8 mg mL^–1 polymer where loaded), pH 7, diluted 20-fold
Description: Hydrogels were prepared as described earlier and diluted 20-fold using HPLC-grade water. The samples were vigorously mixed with a vortex to separate as much as possible the fibers. A carbon-coated copper grid (400 mesh grid Electron Microscopy Sciences, Hatfield, Pennsylvania, USA) was glow discharged and charged negatively. The carbon copper grid was then placed sequentially on a 10 μL sample droplet for 60 s, a 10 μL droplet of HPLC grade water for 10 s three times, a 10 μL droplet of 5% uranyl acetate solution for 30 s, and finally, on a 10 μL droplet of HPLC grade water for 10 s. After each step, excess liquid was drained off using lint-free tissue (90 mm Whatman 1). The grid was then left to air-dry for 2–5 min. TEM images were taken using an FEI Tecnai12 BioTwin transmission electron microscope running at 100 kV and equipped with a Gatan Orius SC1000A CCD camera. Fiber width analysis was performed by measuring randomly the widths of 700 fiber (cut-off size 20 nm) using ImageJ software across at least three TEM images for each sample.

[4] = Hydrogel behaviour in cell culture media without cells; format: physicochemical; settings: after 14 days in cell culture media (DMEM, αMEM), no cells, 37 °C
Description: Rheological measurements were performed using a Discovery Hybrid 2 (DHR-2) rheometer from TA Instruments (New Castle, Delaware, USA) using a 20 mm parallel plate geometry and a 500 μm gap. Samples were prepared as described earlier. Hydrogels (200 μL) were pipetted onto the rheometer’s static bottom plate and the rheometer top plate lowered to the desired gap size. For hydrogel in cell culture inserts and conditioned with cell culture media (see below), the bottom membranes of the insets were removed, and the hydrogels deposited on the rheometer’s static bottom plate. Samples were covered with a solvent trap to avoid evaporation and left to equilibrate at 37 °C for 180 s before the experiments. Strain sweep experiments were performed at 1 Hz in the 0.01–100% strain range. The shear-thinning and recovery (i.e., injectability) experiments were performed by applying sequentially a low shear strain (0.2%) for 5 min followed by a high shear strain (1000%) for 1 min and again a low shear strain (0.2%) for 5 min.
Hydrogel samples were removed from the fridge (4 °C) and prewarmed to 37 °C. Cells were encapsulated into the hydrogel by gentle pipetting to ensure an evenly mixed sample, at a final density of 1 × 10^6 cells mL^–1. 100 μL of cell-laden hydrogel was then dispensed into ThinCert inserts (Greiner Bio-One) in 24-well plates and cell culture medium (1 mL) was added into each well/insert. […]

[5] = Swelling / stability of hydrogels in excess water; format: physicochemical; settings: 12 mg mL^–1 peptide, 0.8 mg mL^–1 polymer where loaded, 1 mL gel + 3 mL HPLC grade water
Description: Hydrogels were prepared as described earlier at 12 mg mL^–1, and 1 mL was transferred into 5 mL cylindrical glass vials. Vials were gently tapped on the bench to eliminate any bubbles and obtained flat surfaces, and the height of the hydrogels was measured (day 0). Three milliliters of HPLC-grade water was then added on the top of the hydrogels. After being stored the samples for 10 days at 37 °C, the vials were inverted, and the height of the hydrogels was measured once again (day 10). The swelling ratio (Q) was defined as (H1 – H0)/H0, where H0 is the height of the hydrogel at day 0 and H1 is the height of the hydrogel at day 10.

[6] = system: 3T3 mouse fibroblast; assay: 3D cell culture, PicoGreen assay; format: cell-based; settings: 3T3 fibroblasts, 3D culture, 14 days; hydrogel prepared at 20 mg mL^–1
Description: (§1) 3T3 mouse fibroblast and an immortalized human bone marrow-derived MSC line (Y201)[37] were used to assess the cytocompatibility of the hydrogels. The 3T3 cells were cultured in Dulbecco’s Modified Eagle’s Medium (DMEM) (Gibco), 1% penicillin–streptomycin (Sigma–Aldrich, P0781), and 10% fetal bovine serum (Sigma–Aldrich, F9665), while the MSCs were cultured in Minimum Essential Medium Eagle (αMEM) (Sigma-Aldrich, M4526), 10% fetal bovine serum (Sigma–Aldrich, F7524), 1% antibiotic/antimycotic solution (Sigma–Aldrich, A5955), 1% GlutaMAX (Life Technologies, 35050038), and 0.01% L-ascorbic acid 2-phosphate (Sigma–Aldrich, A8960). Cells were harvested when reaching 70–80% confluency. For cell counting, the cell suspension was mixed (1:1 ratio) with a 0.4% trypan blue solution (Bio-Rad) and cell counted using an automated cell counter (Cellometer Auto 1000, Nexcelom).
(§2) Hydrogel samples were removed from the fridge (4 °C) and prewarmed to 37 °C. Cells were encapsulated into the hydrogel by gentle pipetting to ensure an evenly mixed sample, at a final density of 1 × 10^6 cells mL^–1. 100 μL of cell-laden hydrogel was then dispensed into ThinCert inserts (Greiner Bio-One) in 24-well plates and cell culture medium (1 mL) was added into each well/insert. 250 μL was added to the top of the hydrogel surface in the inset, and 750 μL was added to the well. Cell culture plates were then incubated at 37 °C with 5% of the CO2. The growth medium was changed every 20 min during the first hour of the experiment and subsequently every 2 days.
(§3) To quantify the number of cells present in the hydrogels, the amount of cells’ dsDNA was quantified via PicoGreen assay (Invitrogen, Thermo Fisher Scientific). […] When ready for analysis, the samples were removed from the −20 °C freezer, thawed at room temperature, and agitated until homogeneous. […] The assay plate was incubated at room temperature in the dark for 5 min then measured using a plate reader (CLARIOstar), using fluorescence detection with excitation at 480–512 nm and emission at 520 nm. […]

[7] = system: immortalized human bone marrow-derived MSC line (Y201); assay: 3D cell culture, PicoGreen assay; format: cell-based; settings: MSCs, 3D culture, over 14 days
Description: as §1, §2, §3

[8] = system: immortalized human bone marrow-derived MSC line (Y201); format: cell-based
Description: as §1, §2
To assess cell viability in the hydrogels, the live/dead assay (Thermo Fisher Scientific) was used. The cell culture medium was removed, and the samples were washed 3 times with DPBS. A working solution of staining reagent was prepared in DPBS (4 μM ethidium homodimer I and 2 μM calcein-AM) and 100 μL was added to the top of the hydrogel surfaces (in the insets) and a further 600 μL into the wells. […]

| Sequence | pKa-like transition assigned to deprotonation of lysine side chain amino groups, pH from which upward [1] [pH] | first pKa-like transition (deprotonation of glutamic acid side groups), pH [1] [pH] | fibers cross-section radius of gyration, Rσ [2] [nm] | estimated fiber diameter, df [2] [nm] | fiber widths distribution maximum [3] [nm] | hydrogel integrity when extracted from cell culture inserts [4] | swelling ([5]; day 10, 37 °C) | cell proliferation (cell number, PicoGreen) [6] | change in cell number (PicoGreen) [7] | cell viability (live/dead) [8] | hydrogel stability in excess water ([5]; 10 days, 37 °C) | hydrogel stability in MSC culture ([8]; after 14 days of 3D culture with MSCs) | shift of terminal NH3+ apparent pKa vs theoretical [unit] |
| --- | --- | --- | --- | --- | --- | --- | --- | --- | --- | --- | --- | --- | --- |
| KFEFKFEFK [K(FEFK)2] | ≥ 9.5 | ≤ 5 | 1.2 ± 0.2 | 3.3 ± 0.5 | 4.9 ± 1.0 | keep their integrity and shape | ~30 % (v/v) | Significant proliferation | no significant change in cell number | good | – | – | – |
| EFKFEFKFE [E(FKFE)2] | ≥ 10.0 | ≤ 4.5 | 1.4 ± 0.2 | 4.0 ± 0.5 | 4.5 ± 0.9 | some loss of integrity and loss of shape | – | – | decrease in cell number | higher | unstable and after 10 days dissolved | dissolve | 1 |
